In patent US20020048572A1, “Treatment of hypertriglyceridemia and other conditions using LXR modulators” (priority 2000, published 2002):

What was measured:
[1] = target: T1, LXRα (Homo sapiens, UniProt Q13133); conditions: fold relative to DMSO
T1 sequence (Q13133 1-447): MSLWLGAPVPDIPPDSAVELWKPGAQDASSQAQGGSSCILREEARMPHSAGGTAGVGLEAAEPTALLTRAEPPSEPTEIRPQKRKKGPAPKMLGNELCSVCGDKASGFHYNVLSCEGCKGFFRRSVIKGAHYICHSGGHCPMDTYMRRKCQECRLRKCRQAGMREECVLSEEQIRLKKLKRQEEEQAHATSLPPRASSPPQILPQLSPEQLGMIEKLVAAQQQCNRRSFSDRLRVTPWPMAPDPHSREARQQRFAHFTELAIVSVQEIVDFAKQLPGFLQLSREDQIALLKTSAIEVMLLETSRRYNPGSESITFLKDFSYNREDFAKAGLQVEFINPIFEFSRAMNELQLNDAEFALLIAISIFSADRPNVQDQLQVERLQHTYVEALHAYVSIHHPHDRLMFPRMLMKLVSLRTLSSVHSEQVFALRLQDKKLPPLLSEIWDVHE

[2] = tested on: HepG2 cells and mice; experiment: Gene expression microarrays (GEM) of LXR agonist-treated HepG2 cells and mice; assay type: in vivo, mouse; conditions: fold increase vs control; mice 5 mg/kg p.o. 7 d
Protocol: Total RNA extraction and purification for Northern blot analysis was accomplished using the TRI reagent (Molecular Research Center).
To understand the mechanism whereby LXR agonist increased plasma triglycerides, changes in global gene expression in response to LXR agonist treatment were assessed by gene expression micrarrays (GEM) and Northern blot analysis. The GEM experiments were carried out using RNA derived from control and LXR agonist-treated HepG2 cells and mice. […] In addition, a prominent subset of >20 fatty acid metabolism-associated genes was increased by LXR agonist. This subset included fatty acid synthase, carnitine palmitoyltransferase 1, acyl-CoA-binding protein, acyl glycerol-3 phosphate acyltransferase, fatty acid amide hydrolase, acyl carrier protein, fatty acid binding and transport proteins, and colipase, a small protein cofactor required by lipase for the efficient hydrolysis of dietary lipid. Up-regulation of liver and intestinal phosphoethanolamine cytidylyltransferase, a key regulatory enzyme in the CDP-ethanolamine pathway for phosphatidylethanolamine synthesis, was also noted.

[3] = tested on: mouse liver mRNA; experiment: Northern blot analysis of hepatic gene expression in treated mice; assay type: in vivo
Protocol: FIG. 9. Northern blot analysis. Total RNA was isolated from the tissues indicated from mice (A,B,C) and hamsters (D). The numerical data shown with each figure represents the fold increase (+) or decrease (-) of expression relative to corresponding vehicle-treated controls. (E) HepG2 cells were incubated in culture media with or without cycloheximide (cyclohex). Total RNA extraction and purification for Northern blot analysis was accomplished using the TRI reagent (Molecular Research Center). […] Mouse gene expression was assessed by Northern blot analysis using random primed, ^32P-labeled, cDNA probes that were generated using the primers described in FIG. 11. Hybridization signals were quantified using a phosphoimager (Molecular Dynamics) and standardized against GAPDH controls. Mouse cDNA probes for the numerous genes analyzed were prepared using primers from mouse liver or intestinal cDNA as template. The SREBP-2 cDNA was a gift from J. D. Horton (University of Texas Southwestern Medical Center, Dallas); mouse and hamster CYP7[…]. W. Russell (University of Texas Southwestern Medical Center, Dallas). SCD-1 was a gift from J. Ntambi (University of Wisconsin, Madison), and apoD was kindly provided by […] (University of Quebec, Montreal).

[4] = tested on: LXRα/β−/− mice liver mRNA; experiment: Northern blot analysis of hepatic mRNA in LXRα/β−/− mice; assay type: in vivo, mouse
Protocol: FIG. 10. […] Pooled plasma (50 μL from each of five mice per group) was fractionated and lipids analyzed as described. Shown are the concentrations for (A) FPLC triglyceride, (B) FPLC phospholipid, and (C) hepatic triglyceride. (D) Northern blot analysis of hepatic SREEP-I, SREBP-2, SCD-1, FAS, and ACC mRNA levels.

induction of transcriptional activity of LXRα [1]: eightfold | steady-state mRNA levels of CYP7A1, SCD-1, and SREBP-1 [3]: increased in a dose-dependent manner | transcript level of 3-hydroxy-3-methylglutaryl coenzyme A synthase (HMG CoA S) [3]: consistently reduced
SMILES: O=S(=O)(c1ccccc1)N(CC(F)(F)F)c1ccc(C(O)(C(F)(F)F)C(F)(F)F)cc1 [T0901317, N-(2,2,2-trifluoro-ethyl)-N-[4-(2,2,2-trifluoro-1-hydroxy-1-trifluoromethyl-ethyl)-phenyl]-benzenesulfonamide]
SREBP-1 expression (GEM) [2]: twofold | fatty acid synthase expression (GEM) [2]: twofold | apoAI, apoAII, apoD, apoE, MTP and NaTCP gene expression [3]: remained unaffected | transcript level of squalene synthase (SQS) [3]: consistently reduced | SR-BI, apoCIII and DCAT transcript levels ([3]; data not shown): did not appear to vary in level | hepatic ACC gene activity (Northern blot) ([3]; fold increase vs vehicle): twofold | hepatic FAS gene activity (Northern blot) ([3]; fold increase vs vehicle): threefold | hepatic SCD-1 gene activity (Northern blot) ([3]; fold increase vs vehicle): up to ninefold | regulation of the SREBP-1, SCD-1, FAS, or ACC gene [4]: lack of regulation
